Results from patent US12606797B2, “Methods of detection of mechanically-activated platelet activation and uses thereof” (Arizona Board of Regents on Behalf of the University of …, priority 2018, dated 2026).

Columns and labels:
[1] = system: procoagulant activity of gel-filtered platelets; assay: Prothrombinase-based Platelet Activation State (PAS) assay, thrombin generation on platelet surface; format: cell-based, human; details: platelets 5×10^3 cells/μL, 200 nM acetylated prothrombin, 100 pM factor Xa, 37° C., 10 minutes
Text: PAS was quantified by chemically modified prothrombinase-based chromogenic assay developed by Jesty and Bluestein (Jesty & Bluestein, Anal. Biochem. (1999), Jesty et al., Platelets, vol. 14, no. 3, pp. 143-149, 2003). The assay measures the rate of acetylated thrombin generation from acetylated proenzyme cleavage by factor Xa in presence of activated platelets. […] Activated, but not resting, platelets present factor Va and negatively charged phospholipids (mostly phosphatidylserine) on their surface for prothrombinase complex formation and thrombin generation. Thus, the rate of enzymatic cleavage of chromogenic substrate Chromozym TH (Tosyl-Gly-Pro-Arg-4-nitranilide acetate, Roche Diagnostics GmbH, Mannheim, Germany) by acetylated thrombin reflects the value of initial activation state of the platelets tested (Jesty & Bluestein, Anal. Biochem. (1999), Rubenstein et al., Circulation, (2004)).
Platelet samples preliminary stimulated with biochemical activators, shear or sonication (platelet count—5×10^3 cells/μL) were incubated with 200 nM acetylated prothrombin, 100 pM factor Xa (Enzyme Research Laboratories, South Bend, IN), 5 mM CaCl2) in a volume of 100 μL 20 mM HEPES, pH 7.4, containing 130 mM NaCl and 0.1% BSA at 37° C. for 10 minutes. Then, 10 μL of each timed sample was measured for thrombin activity in microplate wells, containing 0.3 mM Cromozyme TH, 3 mM EDTA in 20 mM HEPES, pH 7.4, containing 130 mM NaCl and 0.1% BSA. Kinetic change of absorbance (λ=405 nm) was measured for 7 minutes at room temperature using microplate reader Versa MAX (Molecular Devices Corp., Sunnyvale, CA). The value of PAS or initial rate of thrombin generation was calculated as a slope of kinetic curve (ΔA405/min) with SoftMax Pro6 Software.

[2] = system: P-selectin exposure on gel-filtered platelets; assay: Flow cytometry of platelet P-selectin exposure (anti-CD62P-APC) after biochemical activation; format: cell-based, human; details: 2.5 mM CaCl2, room temperature; for number of CD62P-positive cells, % of whole platelet population: GFP 2×10^4 platelets/μL, 10 uM ADP, 10 μg/mL epinephrine, 1 mM arachidonic acid, gate ≥3000 AU; for P-selectin exposure (in words): GFP, 32 μM TRAP6, 1 U/mL thrombin, 100 μg/mL collagen
Description: (§1) To induce biochemical activation, GFP (2×10^4 platelets/μL, final volume 100 μL) were treated with biochemical agonists mentioned above in presence of 2.5 mM CaCl2), mixed gently and incubated undisturbed for 15 minutes at room temperature. Then APC-conjugated anti-CD62P (clone Psel.KO2.3, eBioscience, San Diego, CA) and FITC-labeled annexin V (eBioscience, San Diego, CA) were added to indicate platelet a-granule secretion and phosphatidylserine externalization (PSE) during platelet biochemical activation. Integrin GP αIIbβ3 activation was evaluated by double-staining technique. […] A pair of antibodies against αIIbβ3 was added simultaneously into a test tube containing activated platelet sample to identify the number of platelets exposing activated αIIbβ3 among all αIIbβ3-expressing platelet population. Cells were incubated with annexin V or antibodies for 30 minutes at room temperature in the dark, washed by centrifugation (5000 rpm, 5 min), resuspended in 1 ml of Ca-free 0.05 M phosphate buffer (pH-7.4) and transferred in polystyrene tube for flow cytometry. Flow cytometry analysis was performed within 15 minutes after sample preparation.
(§2) Flow cytometry was performed on FACS Canto II (BD Biosciences, San Jose, CA) using the following configurations: HeNe red laser (633 nm) and 660/20 filter—for APC, solid state blue laser (488 nm) and 530/30 filter—for FITC-stained cell detection. Single platelets were distinguished from their aggregates and microparticles based on their characteristic forward versus side scatter. […] BD FACSDiva™ software was applied to analyze flow cytometry data statistics (percentage of marker-positive platelets among whole platelet population and their median fluorescence intensity).
(§3) To define the molecular signature of SMPA, biochemical versus mechanical platelet activation by uniform shear stress applied in the hemodynamic shearing device (HSD) was compared. […] Mechanical platelet activation was obtained via GFP exposure to uniform continuous shear in HSD as described above in “Shear-mediated platelet activation”. Physiologically relevant shear stress levels (30 and 50 dynes/cm^2) close to those found in blood stream vs. sub-pathological shear conditions (70 dynes/cm^2) existing within MCS were examined. Initially, the P-selectin exposure, as a known marker of platelet activation and α-granule secretion, was detected employing mono immunostaining and quantified by flow cytometry. Those cells showing high fluorescence intensity (≥3000 AU) were gated as P-selectin positive platelets and marked as sub-population P6 (FIGS. 2A-2G).

[3] = system: human platelets (GFP, PRP); assay: Platelet aggregation induced with biochemical agonists (optical aggregometer); format: cell-based; details: 1 mM CaCl2, 5 min, 37° C.; for ability to induce platelet aggregation in GFP: gel-filtered platelets, 32 μM TRAP6, 1 U/mL thrombin, 100 μg/mL collagen, 1 mM arachidonic acid
Description: Platelet aggregation was assessed in PRP or GFP samples employing dual channel optical aggregometer (Model 560-VS, Chrono-Log Corporation, Havertown, PA). […] Platelet count in aggregation mixture was adjusted to 150-200×10^3 plt/μL (in GFP) and to 300-350×10^3 plt/μL (in PRP), final CaCl2 concentration was 1 mM. Aggregation was started by adding mentioned agonists and running for 5 minutes at 37° C. with 1000 rpm stirring. The changes in relative light transmittance were recorded, and arbitrary values for each aggregation curve were calculated with Aggrolink software (Chrono-Log Corporation, Havertown, PA).
as §3

[4] = system: phosphatidylserine externalization on gel-filtered platelets; assay: Annexin V binding assay of phosphatidylserine externalization (flow cytometry); format: cell-based, human; details: GFP, 2.5 mM CaCl2; for annexin V binding after platelet stimulation (in words): agonist taken alone
Description: as §1, §2
To detect phosphatidylserine exposure, an annexin V binding assay is extensively utilized. The principle of the assay is based on the high affinity binding of protein annexin V labeled with fluorescence dye to phosphatidylserine on platelet surface with the aid of Ca2+ ions (Demchenko, Cytotechnology, vol. 65, no. 2, pp. 157-72, March (2013)).

[5] = system: integrin GPIIb/IIIa activation on gel-filtered platelets; assay: Flow cytometry of integrin GPIIb/IIIa activation (anti-CD41/CD61-FITC PAC-1 and anti-CD41-APC double staining); format: cell-based, human; details: for number of platelets presenting activated GPIIb/IIIa (CD41/CD61-positive among CD41-positive) / elevation of number of platelets presenting activated GPIIb/IIIa as compared with intact platelets: GFP, 10 uM ADP, 1 U/mL thrombin; for number of platelets presenting activated GPIIb/IIIa (CD41/CD61-positive among CD41-positive): 2.5 mM CaCl2, gate ≥4000 AU, intact platelets 6.7±2.9%; for number of CD41/CD61-positive platelets following GFP stimulation (in words): 2.5 mM CaCl2, vs intact platelets
Description: as §1, §2
To assess the magnitude of integrin GPIIb/IIIa activation after platelet stimulation with constant shear or biochemical agonists, the number of whole GPIIb/IIIa-positive platelet population was compared with the number of those presenting activated form of the integrin on their membrane. For this purpose, double staining with APC-conjugated anti-CD41 and FITC-conjugated anti-CD41/CD61 was applied as describe in the methods described above. Among parental CD41-positive platelet population, CD41/CD61-positive cells were distinguished based on their FITC-fluorescence intensity level (≥4000 AU) and assumed as presenting activated form of integrin GPIIb/IIIa on their surface (FIGS. 4A-4G, sub-population P3).

human platelets = details: not sensitive to cyclooxygenase inhibitors; cited from earlier work

Row | Compound | thrombin generation / amidolytic activity in presence of stimulated platelets (PAS assay, in words) [1] | number of CD62P-positive cells, % of whole platelet population [2] | ability to induce platelet aggregation in PRP ([3]; platelet-rich plasma, 10 uM ADP, 10 μg/mL epinephrine) | annexin V binding after platelet stimulation (in words) [4] | number of platelets presenting activated GPIIb/IIIa (CD41/CD61-positive among CD41-positive) [5] | elevation of number of platelets presenting activated GPIIb/IIIa as compared with intact platelets [5] | AA concentration required for Ca^2+ influx (human platelets) | ability to induce platelet aggregation in GFP [3] | number of annexin V-positive platelets, % of whole platelet population ([4]; arachidonic acid 1 mM) | number of CD41/CD61-positive platelets following GFP stimulation (in words) [5] | P-selectin exposure (in words) [2]
1 | Nc1ncnc2c1ncn2[C@@H]1O[C@H](COP(=O)(O)OP(=O)(O)O)[C@@H](O)[C@H]1O [ADP, Adenosine DiPhosphate] | no amidolytic activity was detected | 46.8±3.9% | induce platelet aggregation | No annexin V binding | 28.0±8.9% | 4.2 times |  |  |  |  | 
2 | CCCCC/C=C\C/C=C\C/C=C\C/C=C\CCCC(=O)O [arachidonic acid] | comparable with sonicated GFP sample | 52.1±6.8% |  |  |  |  | 60 µM | induce platelet aggregation | 52.12±6.79% | not significantly elevated | 
3 | CNC[C@H](O)c1ccc(O)c(O)c1 [epinephrine] | no amidolytic activity was detected | 18.6±1.5% |  | No annexin V binding |  |  |  |  |  | not significantly elevated | 
4 | collagen | no amidolytic activity was detected |  |  | No annexin V binding |  |  |  | induce platelet aggregation |  | not significantly elevated | failed to induce high P-selectin exposure
5 | thrombin |  |  |  | No annexin V binding | 63.5±10.2% | 9.6 times |  | induce platelet aggregation |  |  | dramatic augmentation of P-selectin exposure
6 | thrombin receptor activating peptide-6 [TRAP-6] | no amidolytic activity was detected |  |  | No annexin V binding |  |  |  | induce platelet aggregation |  | not significantly elevated | dramatic augmentation of P-selectin exposure
